This is an account of results in patent US20260174742A1, “INHIBITORS OF CYCLIC ADP RIBOSE HYDROLASE AND METHODS OF USE THEREOF” (Flagship Pioneering Innovations VI, LLC, priority 2022, published 2026).

Bounds are passed on as bounds.

In general, IC50 refers to the concentration needed to halve the response being measured.

For this assay, the target named is T1, Human recombinant CD38 (Homo sapiens, UniProt P28907).
T1 construct: purchased BPS Bioscience
T1 sequence (P28907 1-300): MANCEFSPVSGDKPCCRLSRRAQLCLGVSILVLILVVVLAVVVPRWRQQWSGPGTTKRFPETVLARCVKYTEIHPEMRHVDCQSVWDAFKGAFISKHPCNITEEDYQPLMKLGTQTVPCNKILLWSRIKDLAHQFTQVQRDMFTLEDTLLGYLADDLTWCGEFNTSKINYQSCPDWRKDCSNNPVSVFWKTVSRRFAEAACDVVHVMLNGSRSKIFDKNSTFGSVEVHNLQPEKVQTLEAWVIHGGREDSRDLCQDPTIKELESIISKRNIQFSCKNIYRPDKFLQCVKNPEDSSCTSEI
Put plainly: CD38 hydrolase inhibition assay (ε-NAD substrate, fluorescence). In kind it is biochemical. The settings on record: 0.2 ng/μL CD38, 100 μM ε-NAD, 15 m at room temperature, excitation 300 nm, emission 410 nm. How it is done:
Example 9: CD38 Hydrolase Inhibition Assay
The CD38 hydrolase inhibition assay measures the glycohydrolase activity of CD38, using an NAD analog as substrate and measuring formation of a fluorescent ADP ribose analog. A 4× buffer was prepared with 1M sucrose and 160 mM Tris-HCl at pH 7.4, for a final assay concentration of 250 mM sucrose and 40 mM Tris-HCl. The 4× solution was kept at 4° C. and warmed to room temperature before use. Tween20 was added to 1× buffer for a final concentration of 0.05%. Human recombinant CD38 (BPS Bioscience) was diluted to 0.4 ng/μL in 1× buffer and 12.5 μL added to each plate well. Inhibitors were added and DMSO content was normalized to the highest concentration on the plate, with an upper limit of 0.5%. Finally, ε-NAD was diluted to 200 μM in 1× buffer and 12.5 μL added to each plate well, for final well concentrations of 0.2 ng/μL CD38 and 100 μM ε-NAD. Plates were covered and incubated at room temperature for 15 m, and then read on a plate reader using excitation 300 nm and emission 410 nm. […] IC50s for test compounds were determined either using GraphPad Prism software v9.3, or CDD Vault.
Consider `CO[C@H]1CC[C@H](NC(=O)c2cc(-c3cncs3)cc(N3CCC[C@@H]3CO)c2)CC1` [Compound 105, 3-[(2R)-2-(hydroxymethyl)pyrrolidin-1-yl]-N-[(trans)-4-methoxycyclohexyl]-5-(1,3-thiazol-5-yl)benzamide], for which the IC50 lay in the range of 100 to 1000 nM.

`CO[C@H]1CC[C@H](NS(=O)(=O)c2cc(C)cc(-n3ccnc3)c2)CC1` [Compound 108, 3-(imidazol-1-yl)-5-methyl-N-[(trans)-4-methoxycyclohexyl]benzene sulfonamide]: the IC50 was above 1000 nM.

With `CO[C@H]1CC[C@H](NC(=O)c2cc(C)cc(-n3ccnc3)c2)CC1` [Compound 101, 3-(imidazol-1-yl)-5-methyl-N-[(trans)-4-methoxycyclohexyl]benzamide], the IC50 is 100 to 1000 nM.

Turning to `CO[C@H]1CC[C@H](NC(=O)c2cc(-c3cnn(C)c3)cc(-n3ccnc3)c2)CC1` [Compound 102, 3-(imidazol-1-yl)-5-(1-methylpyrazol-4-yl)-N-[(trans)-4-methoxycyclohexyl]benzamide], the IC50 is below 100 nM.

Consider `CO[C@H]1CC[C@H](NC(=O)c2cc(N3CC[C@H](O)C3)cc(-n3ccnc3)c2)CC1` [Compound 104, 3-[(3S)-3-hydroxypyrrolidin-1-yl]-5-(imidazol-1-yl)-N-[(trans)-4-methoxycyclohexyl]benzamide], for which the IC50 is 100 to 1000 nM.

For the compound `COCCO[C@H]1CC[C@H](NC(=O)c2cc(-c3cnn(C)c3)cc(-c3cncs3)c2)CC1` [Compound 107, 3-(1-methylpyrazol-4-yl)-N-[(trans)-4-(2-methoxyethoxy)cyclohexyl]-5-(1,3-thiazol-5-yl)benzamide], the IC50 is below 100 nM.
